The results in this text go back to patent publication US7625936B2, “Mitotic kinesin inhibitors” (Merck & Co. Inc., priority 2005, dated 2009).

The assay concerns the target T1, human KSP motor domain (KSP(367H)) (Homo sapiens, UniProt P52732).
T1 construct: were used to amplify the motor domain and the neck linker region; made in house; host or cells: E. coli BL21 (DE3), vector pRSETa
T1 sequence (P52732 1-367): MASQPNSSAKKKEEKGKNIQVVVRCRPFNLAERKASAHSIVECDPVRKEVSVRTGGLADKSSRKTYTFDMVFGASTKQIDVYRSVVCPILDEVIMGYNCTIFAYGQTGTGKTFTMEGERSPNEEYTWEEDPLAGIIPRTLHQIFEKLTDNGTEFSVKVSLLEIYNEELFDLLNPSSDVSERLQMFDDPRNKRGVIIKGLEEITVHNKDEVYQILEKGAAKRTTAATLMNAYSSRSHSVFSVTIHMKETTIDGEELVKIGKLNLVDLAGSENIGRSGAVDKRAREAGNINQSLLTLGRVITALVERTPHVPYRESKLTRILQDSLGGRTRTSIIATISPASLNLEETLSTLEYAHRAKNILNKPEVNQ
Kind of assay: Kinesin ATPase in vitro assay. In kind it is biochemical. Particulars: kinesin motor domain incubated with microtubules, 1 mM ATP and compound at 23° C.; free phosphate by quinaldine red/ammonium molybdate, absorbance 540 nm. An excerpt: I. Kinesin ATPase In Vitro Assay
Cloning and Expression of Human Poly-Histidine Tagged KSP Motor Domain (KSP(367H))
Plasmids for the expression of the human KSP motor domain construct were cloned by PCR using a pBluescript full length human KSP construct (Blangy et al., Cell, vol. 83, pp 1159-1169, 1995) as a template. The N-terminal primer 5′-[…] (SEQ.ID.NO.: 1) and the C-terminal primer 5′-[…] […] (SEQ.ID.NO.: 2)were used to amplify the motor domain and the neck linker region. The PCR products were digested with AseI and XhoI, ligated into the NdeI/XhoI digestion product of pRSETa (Invitrogen) and transformed into E. coli BL21 (DE3).
Cells were grown at 37° C. to an OD600 of 0.5. […]
The kinesin motor domain is incubated with microtubules, 1 mM ATP (1:1 MgCl2: Na-ATP), and compound at 23° C. in buffer containing 80 mM K-HEPES (pH 7.0), 1 mM EGTA, 1 mM DTT, 1 mM MgCl2, and 50 mM KCl. […] Free phosphate from the ATP hydrolysis reaction is measured via a quinaldine red/ammonium molybdate assay by adding 150 μl of quench C buffer containing a 2:1 ratio of quench A:quench B. Quench A contains 0.1 mg/ml quinaldine red and 0.14% polyvinyl alcohol; quench B contains 12.3 mM ammonium molybdate tetrahydrate in 1.15 M sulfuric acid. The reaction is incubated for 10 minutes at 23° C., and the absorbance of the phospho-molybdate complex is measured at 540 nm.

A word on the IC50: it is the midpoint of a concentration-inhibition curve. Higher therefore signals weaker potency.

On to `CC(=O)N1CCN(CCC[C@@]2(c3ccccc3)CC(c3cc([Si](C)(C)C)ccc3F)=NN2C(C)=O)CC1` [Compound 3-8, 1-acetyl-4-(3-{(5S)-1-acetyl-3-[2-fluoro-5-(trimethylsilyl)phenyl]-5-phenyl-4,5-dihydro-1H-pyrazol-5-yl}propyl)piperazine], for which the IC50 was at most 50 µM.

`CC(=O)N1N=C(c2cc(F)ccc2F)CC1(CC[Si](C)(C)O)c1ccccc1` (centres unmarked) [Compound 1-5, {2-[1-acetyl-3-(2,5-difluorophenyl)-5-phenyl-4,5-dihydro-1H-pyrazol-5-yl]ethyl}(dimethyl)silanol] displayed a half-maximal inhibitory concentration (IC50) of at most 50 µM.
